Measurements taken from patent publication US20250223306A1, “TEAD INHIBITORS AND METHODS OF USE” (Sporos BioDiscovery, Inc., priority 2022, published 2025).

Legend:
NCI-H226 cells = assay: Proliferation and cell viability, CellTiter-Glo 2.0 (CTG) assay; type: cell-based; conditions: for IC50: H226-responder cell line, 144 hrs; for EC50: NCI-H226, H226-responder cell line (Table 5)
Experimental: Cell proliferation of a TEAD dependent NF2-null mesothelioma cell line, NCI-H226, and a TEAD-non-dependent mesothelioma cell line, NCI-H28 was assayed using two different protocols: • a) CellTiter-Glo 2.0 (Promega #G9243). The effect of the TEAD inhibitors disclosed herein on cell proliferation was determined in TEAD1-genetically dependent cell line NCI-H226 (responder cell line) and TEAD-independent cell lines (NCI-H23, HEK293T), as non-responder, negative control. Cells were seeded in 96-well plates (Thermo Scientific #167008) in growth media (RPMI-1640, Gibco #61870-010) for NCI-H226 and NCI-H23 or DMEM (Gibco #31966-021, HEK293T) with 10% Heat Inactivated Fetal Bovine Serum (Gibco 10500-064) at 800 (NCI-H226 and HEK-293T) or 2000 (NCI-H23) cells per well at 37° C., 5% CO2, humidified incubator; 24 hours later, fresh growth media containing test compound or DMSO vehicle was added and incubated with the cells for 144 hrs. TEAD inhibitor stocks were made at a 1000× fold excess in DMSO, and a dose response test compound dose range of 10,000 to 0.1 nM was used. Each treatment was carried out in triplicate. After 144 hrs of treatment, relative cell viability numbers were determined using the CellTiter-Glo 2.0 assay following the manufacturer's instructions. Test plates and CellTiter-Glo 2.0 reagent were allowed to equilibrate to room temperature. CellTiter-Glo 2.0 reagent was added at 1:1 reagent to media ratio to the 96-well cell plates, plates were placed on a plate shaker for 2 minutes and then incubated at room temperature for a further 10 minutes to allow complete cell lysis to occur. The mix was then transferred to white, 96-well luminometer assay plates (Greiner Bio One #655075). Luminescence was quantified using a CLARIOStar Plus multi-mode plate reader (BMG Labtech) in luminescence detection mode with the recommended settings (ultra-Glo pre-set: emission 545-50 nm with autofocus and enhanced dynamic range on). Relative cell density was expressed as a function of inhibitor concentration, with respect to DMSO-only control wells. Data where plotted using GraphPad Prism and IC50 values for the biological effect were calculated using the EC50 non-linear fit function using a sigmoidal, 4-parameter logistic, least squares fit with no constraints. • b) Cell Titer One (Promega, #G3582). The effect of the TEAD inhibitors disclosed herein on cell proliferation was also determined using the Promega Substrate Cell Titer Aqueous One Solution Reagent. The TEAD inhibitors were evaluated for the effects on cell proliferation responder (H226) and non-responder negative control cancer cell lines (CAMA1, H28), as well as non-transformed normal human cells (HUVEC, NHDF). Dissociated cells were resuspend in media (depending on cell line, either in DMEM, RPMI, or EMEM all with 10% FBS, with gentamicin as an antibiotic). Cells were seeded at 100 μL/well at 750 cells per well in 96-well plates and allowed to settle and attach. After an incubation of 24 hrs (37° C., 5% CO2, humidified incubator), 100 μL of test compound-containing media was added. A dilution series of 2000× concentrated stock of test compounds was prepared in DMSO, for final concentrations from 0.1 to 10,000 nM. After addition of test compound-containing media, cells were incubated for 6 days at 37° C., 5% CO2, humidified incubators). To measure cell density, 20 μL of Promega Substrate Cell Titer 96 Aqueous One Solution Reagent (Promega, #G3582) to each well was added according to the manufacturer's instructions. Plates were incubated at 37° C. for usually 3-8 hrs, to reach in the control cells (without compound) an OD of 1.5 at 490 nm. The OD was measured using Vmax [Molecular Devices] spectrophotometer plate reader. Media only-wells were used as background controls and cell densities normalized to DMSO vehicle control. ECs were taken as the concentration achieving 50% of maximal growth inhibition.

SDM103T2 cells = assay: SDM103T2 proliferation and cell viability assay (CTG); type: cell-based; conditions: SDM103T2 cell line, 144 hours
Experimental: SDM103T2 cells were trypsinised, counted and plated at the specified cell density in 200 μl of growth media in 96 well flat bottom tissue culture treated plates. The plated cells were incubated overnight at 37° C., 5% CO2 before being treated with compounds in triplicate for each assay point. 50 μl of the serially diluted compound was added to each well giving a final DMSO concentration of 0.5% per well and a total volume of 250 μl per well. The treated cells were incubated for 144 hours (6 days) at 37° C., 5% CO2. Following compound treatment the remaining viable cells were detected using the Promega CellTiter-Glo 2.0 assay as follows: 150 μl of media was removed from each of the wells to be assayed and 100 μl of room temperature CellTiter-Glo 2.0 reagent was added. The plate was placed on an orbital shaker at 500 rpm at room temperature for 2 minutes, and then incubated without shaking for a further 10 minutes at room temperature. 150 μl of cell lysate was removed from each well and dispensed into a single well of a white opaque 96 well plate. Luminescence at 545 nm was read using a BMG CLARIOstar plate reader. The luminescent signal was directly proportional to number of viable cells, the percent of viable cells relative to the DMSO control was then calculated for each assay point. Percent viability relative to DMSO control was plotted against compound concentration and a curve fitted with non-linear regression in GraphPad Prism software. EC50 and IC50 values were calculated using GraphPad Prism software as follows: For EC50 values a non-constrained four-parameter logistic curve fit was used (Sigmoidal, 4PL, X is concentration). For Absolute IC50 values the baseline was constrained to Y=0 (Absolute IC50, X is concentration). Area Under the Curve (AUC): Prism computes area-under-the-curve by the trapezoidal method. The analysis sees a fitted curve as simply a series of connected XY points. Prism simply computes the area under the “curve” defined by connecting the points by straight lines. The units of the AUC are the units of the Y axis times units of the X axis.

Row | SMILES | IC50 (NCI-H226 cells; Homo sapiens, NCI-H226, 144 h) [nM] | EC50 (NCI-H226 cells; Homo sapiens) [nM] | EC50 (SDM103T2 cells) [nM] | IC50 (NCI-H226 cells) [nM]
1 | C[C@H](CO)NC(=O)c1cnc2c(C3=CCC(C(F)(F)F)CC3)cccc2c1 (stereo partly drawn) [Compound 7, N—((R)-1-hydroxypropan-2-yl)-8-(4-(trifluoromethyl)cyclohex-1-en-1-yl)quinoline-3-carboxamide] | < 200 | < 200 | < 200 | 
2 | COc1cc(C2=CCC(C(F)(F)F)CC2)c2ncc(C(=O)N[C@H](C)CO)cc2c1 (stereo partly drawn) [Compound 110, N—((R)-1-hydroxypropan-2-yl)-6-methoxy-8-(4-(trifluoromethyl)cyclohex-1-en-1-yl)quinoline-3-carboxamide] |  | < 200 | < 200 | 
3 | C[C@H](NC(=O)c1cnc2c(C3=CC[C@@H](C(F)(F)F)CC3)cccc2c1)c1ncco1 (single isomer, unassigned) [Compound 20, N-(1-(oxazol-2-yl)ethyl)-8-(4-(trifluoromethyl)cyclohex-1-en-1-yl)quinoline-3-carboxamide] |  |  |  | < 200
4 | C[C@@H](NC(=O)c1cnc2c(C3=CCC4(CC3)CC4)cccc2c1)c1ncco1 [Compound 166, (R)—N-(1-(oxazol-2-yl)ethyl)-8-(spiro[2.5]oct-5-en-6-yl)quinoline-3-carboxamide] |  | < 200 | < 200 | 
5 | C=CC(=O)Nc1ccc(C)c(Oc2ccc(Cl)cc2)c1 [Compound 1-3, reference compound] |  | < 200 | < 200 | 
6 | O=C(NCc1ccn[nH]1)c1cnc2c(C3=CCC(C(F)(F)F)CC3)cccc2c1 (stereo not drawn) [Compound 47, N-((1H-pyrazol-5-yl)methyl)-8-(4-(trifluoromethyl)cyclohex-1-en-1-yl)quinoline-3-carboxamide] |  | < 200 | < 200 | 
7 | O=C(NCc1ncco1)c1cnc2c(C3=CCC(C(F)(F)F)CC3)cccc2c1 (stereo not drawn) [Compound 11, N-(oxazol-2-ylmethyl)-8-(4-(trifluoromethyl)cyclohex-1-en-1-yl)quinoline-3-carboxamide] | < 200 | < 200 | < 200 | 
8 | C[C@H](NC(=O)c1cnc2c(C3=CC[C@@H](C(F)(F)F)CC3)cccc2c1)c1ncco1 (single isomer, unassigned) [Compound 19, N-(1-(oxazol-2-yl)ethyl)-8-(4-(trifluoromethyl)cyclohex-1-en-1-yl)quinoline-3-carboxamide] | < 200 | < 200 | < 200 | 
9 | COC[C@H](CO)NC(=O)c1cnc2c(C3=CCC(C(F)(F)F)CC3)cccc2c1 (stereo partly drawn) [Compound 62, N—((S)-1-hydroxy-3-methoxypropan-2-yl)-8-(4-(trifluoromethyl)cyclohex-1-en-1-yl)quinoline-3-carboxamide] |  | < 200 | < 200 | 
10 | FC(F)(F)c1ccc(CN2CCC(C3CC(Br)=NO3)CC2)cc1 (stereo not drawn) [Compound 1-2, reference compound] |  | < 200 | > 1000 | 
11 | C[C@H](CO)NC(=O)c1cnc2c(C3=CCC4(CC3)CC(F)(F)C4)cccc2c1 [Compound 165, (R)-8-(2,2-difluorospiro[3.5]non-6-en-7-yl)-N-(1-hydroxypropan-2-yl)quinoline-3-carboxamide] |  | < 200 | < 200 | 
12 | C[C@H](NC(=O)c1cnc2c(C3=CCC(C(F)(F)F)CC3)cccc2c1)c1ccccn1 (stereo partly drawn) [Compound 2, N—((S)-1-(pyridin-2-yl)ethyl)-8-(4-(trifluoromethyl)cyclohex-1-en-1-yl)quinoline-3-carboxamide] | < 200 |  |  | 
13 | COc1cc(C2=CCC(C(F)(F)F)CC2)c2ncc(C(=O)N[C@H](C)c3ncco3)cc2c1 (stereo partly drawn) [Compound 109, 6-methoxy-N—((R)-1-(oxazol-2-yl)ethyl)-8-(4-(trifluoromethyl)cyclohex-1-en-1-yl)quinoline-3-carboxamide] |  | < 200 | < 200 | 
